# Laboratory results published in patent US8470889B2 (TRT Pharma Inc., priority 2008, dated 2013).
# Where a chain is given by its changes, count along the chain named.
# Columns and labels:
# 22Rv1 cells = assay: MTT cell growth inhibition, 22Rv1
# PC-3 cells = assay: MTT cell growth inhibition, PC-3; details: Part D table, 72 hours, I.A. = Inactive
# Method: (§4) MDA PCa 2b was seeded at the same density in medium BRFF-HPC1 (Athena Enzyme Systems, Baltimore, Md., USA) supplemented with 20% FBS. After overnight incubation, the medium was changed to a fresh medium containing different concentrations of test compounds diluted from stock DMSO solution. The final concentration of DMSO is 0.5%. After 72 h of incubation with test compounds, 20 μL of 3-(4,5-dimethyl thiazol-2-yl)-2,5-diphenyltetrazolium bromide (MTT) solution (5 mg/mL in PBS) were added to each well and incubated further for 2 h. Next, the supernatant was aspirated and the MTT formazan formed by metabolically viable cells was dissolved in 100 μL of isopropanol. The plates were mixed for 30 min, and the absorbance was measured at 600 nm on a plate reader (FLUOstar OPTIMA, BMG LabTech). All samples were in triplicate. The IC50 values were determined from dose-response curves by nonlinear regression using PRISM v5.00 (GraphPad Software Inc, La Jolla, Calif., USA).
# (§5) The in vitro cytotoxicity of 1-20 were evaluated by MTT assays in a panel of prostate cancer cell lines, including LNCaP, MDA PCa 2b, 22Rv1, C4-2B and PC-3.
# H874Y mutated AR = target: T1, H874Y mutated AR (Homo sapiens, UniProt P10275, H875Y); assay: Luciferase assay for AR transactivation, H874Y AR, PC-3 cells; type: cell-based; details: test compound 1 μM, 0.1 nM DHT
# T1 sequence (P10275 1-920 H875Y): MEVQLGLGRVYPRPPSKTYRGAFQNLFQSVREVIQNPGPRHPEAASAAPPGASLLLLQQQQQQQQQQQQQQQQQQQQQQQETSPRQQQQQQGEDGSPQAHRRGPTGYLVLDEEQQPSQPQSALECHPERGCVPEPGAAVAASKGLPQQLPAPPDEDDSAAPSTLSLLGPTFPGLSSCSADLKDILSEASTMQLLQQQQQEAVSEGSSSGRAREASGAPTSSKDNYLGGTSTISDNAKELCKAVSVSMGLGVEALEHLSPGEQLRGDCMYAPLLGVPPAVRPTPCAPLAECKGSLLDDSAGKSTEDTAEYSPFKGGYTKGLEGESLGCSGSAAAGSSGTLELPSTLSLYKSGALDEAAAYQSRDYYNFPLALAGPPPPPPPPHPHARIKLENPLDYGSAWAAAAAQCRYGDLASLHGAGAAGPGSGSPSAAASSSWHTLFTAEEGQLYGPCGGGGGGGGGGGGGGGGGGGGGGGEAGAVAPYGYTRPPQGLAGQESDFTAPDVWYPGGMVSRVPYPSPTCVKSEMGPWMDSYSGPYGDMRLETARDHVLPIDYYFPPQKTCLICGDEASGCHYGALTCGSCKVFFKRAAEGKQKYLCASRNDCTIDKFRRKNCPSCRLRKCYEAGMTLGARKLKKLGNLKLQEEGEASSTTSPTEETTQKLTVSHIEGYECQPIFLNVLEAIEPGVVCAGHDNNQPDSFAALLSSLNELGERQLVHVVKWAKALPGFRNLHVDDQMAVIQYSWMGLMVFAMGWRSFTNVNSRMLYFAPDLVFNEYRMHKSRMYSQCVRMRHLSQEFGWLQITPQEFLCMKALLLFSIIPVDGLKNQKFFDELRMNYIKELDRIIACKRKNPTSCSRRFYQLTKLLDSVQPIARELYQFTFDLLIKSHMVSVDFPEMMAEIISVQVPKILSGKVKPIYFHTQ
# Method: (§1) PC-3 cells were transiently transfected with pCMV-MMTV-Luc, Renilla null luciferase and AR expressing plasmids. The cells were treated with 0.1 nM DHT with and without test compound for 24 hr. Relative luciferase activity was determined by dual luciferase assay kit (Promega), standardized to Renilla luciferase control and normalized to 0.1 nM DHT without test compound (100%).
# (§2) After 16 h, the cells were treated with 0.1 nM of DHT and test compounds at the designated concentration. After further 24 h, the cells were lysed in 100 μL/well passive lysis buffer, and 20 μL of the cell lysates was used for detection of the luciferase activity using Dual Luciferase Assay System (Promega). All experiments were run in triplicate. Relative luciferase activity is determined as the ratio of inducible firefly luciferase luminescence divided by the luminescence of the renilla luciferase control normalized to 0.1 nM DHT without test compounds.
# (§3) The potency of antagonistic activity: ++>+.
# LNCaP cells = assay: MTT cell growth inhibition, LNCaP;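 note: MTT formazan absorbance at 600 nm read after 72 h of compound exposure, IC50 fitted by nonlinear regression of dose-response curves, samples run in triplicate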; details: Part D table, 72 hours, I.A. = Inactive
# MDA PCa 2b cells = assay: MTT cell growth inhibition, MDA PCa 2b;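 note: MDA PCa 2b prostate cancer cells in BRFF-HPC1 with 20% FBS, exposed to compounds for 72 h, viable-cell MTT formazan read as absorbance at 600 nm, 0.5% DMSO vehicle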
# C4-2B cells = assay: MTT cell growth inhibition, C4-2B;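 note: cells treated with a dilution series for 72 h, then MTT added and absorbance read at 600 nm, IC50 fitted from dose-response curves by nonlinear regression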; details: Part D table, 72 hours, I.A. = Inactive
# Method: as §4, §5
# T877A mutated AR = target: T2, T877A mutated AR (Homo sapiens, UniProt P10275, T878A); assay: Luciferase assay for AR transactivation, T877A AR, PC-3 cells; type: cell-based
# T2 sequence (P10275 1-920 T878A): T1 sequence (P10275 1-920 H875Y) with Y875H, T878A
# Method: as §1, §2, §3
# wild-type human AR = target: T3, wild-type human AR (Homo sapiens, UniProt P10275); assay: Luciferase assay for AR transactivation, wild-type AR, PC-3 cells; type: cell-based; set-up: Antiandrogenic activity evaluated by luciferase assay in PC-3 cells WT: key to the marks not given beside the values; details: test compound 1 μM, 0.1 nM DHT
# T3 construct: utilizing plasmid expressing a full length of AR; expressed in transfected cells; host or cells: PC-3 cells, plasmid pCMV-AR-wt
# T3 sequence (P10275 1-920): T1 sequence (P10275 1-920 H875Y) with Y875H
# Method: as §1, §2, §3
# PC-3 cells were transiently transfected with plasmid expressing wild type human AR and MMTV-Luc. […] RLU, relative luciferase units, were normalized to that of 0.1 nM DHT alone.
# [1] = 72 hrs, concentrations up to 50 μM, FIG. 2
compound,measurement,setting,value
"CC(C)(O)C(=O)Nc1ccc([N+](=O)[O-])c(C(F)(F)F)c1 [OHF, hydroxyflutamide, reference compound]",growth inhibitory effect on 22Rv1 cells,22Rv1 cells; [1],resistant
same,IC50,"22Rv1 cells; read-out: Cytotoxicity in prostate cancer cell lines IC50 (μM), 22Rv1, Part D table, MTT, 72 hours",> 50 µM
same,"Cytotoxicity in prostate cancer cell lines IC50 (μM), PC-3",PC-3 cells,I.A.
same,Antiandrogenic activity evaluated by luciferase assay in PC-3 cells H874Y,H874Y mutated AR,+
same,"Cytotoxicity in prostate cancer cell lines IC50 (μM), LNCaP",LNCaP cells,I.A.
same,growth inhibitory effect on PCa 2b cells,MDA PCa 2b cells; [1],resistant
same,IC50,"MDA PCa 2b cells; read-out: Cytotoxicity in prostate cancer cell lines IC50 (μM), PCa-2b, Part D table, MTT, 72 hours",> 50 µM
same,"Cytotoxicity in prostate cancer cell lines IC50 (μM), C4-2B",C4-2B cells,I.A.
same,agonist activity on T877A AR,"T877A mutated AR; absence of DHT, PC-3 cells",activated
same,Antiandrogenic activity evaluated by luciferase assay in PC-3 cells T877A,"T877A mutated AR; test compound 1 μM, 0.1 nM DHT",Agonist
same,Antiandrogenic activity evaluated by luciferase assay in PC-3 cells WT,wild-type human AR,++
